Results from patent US11426467B2, “Dosage regimes for the administration of an anti-CD25 ADC” (ADC THERAPEUTICS SA, priority 2017, dated 2022).

Assay: Steroid administration with ADC, toxicity symptoms reported by subjects
Format: in vivo
Settings: steroid given with ADC dosage regimes

SMILES: C[C@@H]1C[C@H]2[C@@H]3CCC4=CC(=O)C=C[C@]4(C)[C@@]3(F)[C@@H](O)C[C@]2(C)[C@@]1(O)C(=O)CO [dexamethasone, (8S,9R,10S,11S,13S,14S,16R,17R)-9-Fluoro-11,17-dihydroxy-17-(2-hydroxyacetyl)-10,13,16-trimethyl-6,7,8,9,10,11,12,13,14,15,16,17-dodecahydro-3H-cyclopenta[a]phenanthren-3-one]
- frequency and/or severity of toxicity symptom reported by subjects: reduced the frequency and/or severity of toxicity symptom
